Measurements taken from patent US12421209B2, “Compounds” (Hoffmann-La Roche Inc., priority 2021, dated 2025).

How the values were obtained:
NLRP3 [1] = molecular target: T1, NLRP3 (Homo sapiens, UniProt Q96P20); assay: THP-1 cells pyroptosis assay (LPS priming, nigericin, resazurin read-out); type: cell-based; parameters: Seed THP-1 cells (25,000 cells/well) containing 1.0 μg/ml LPS; host or cells: THP-1 cells; details: 1.0 μg/ml LPS, 5 μM nigericin
Method: THP-1 cells (ATCC #TIB-202) were grown in RPMI containing L-glutamine (Gibco #11835) supplemented with 1 mM sodium pyruvate (Sigma #S8636) and penicillin (100 units/ml)/streptomycin (0.1 mg/ml) (Sigma #P4333) in 10% Fetal Bovine Serum (FBS) (Sigma #F0804). The cells were routinely passaged and grown to confluency (˜10^6 cells/ml). On the day of the experiment, THP-1 cells were harvested and resuspended into RPMI medium (without FBS). The cells were then counted and viability (>90%) checked by Trypan blue (Sigma #T8154). Appropriate dilutions were made to give a concentration of 625,000 cells/ml. To this diluted cell solution was added LPS (Sigma #L4524) to give a lug/ml Final Assay Concentration (FAC). 40 μl of the final preparation was aliquoted into each well of a 96-well plate. The plate thus prepared was used for compound screening.
The following method step-by-step assay was followed for compound screening. • 1. Seed THP-1 cells (25,000 cells/well) containing 1.0 μg/ml LPS in 40 μl of RPMI medium (without FBS) in 96-well, black walled, clear bottom cell culture plates coated with poly-D-lysine (VWR #734-0317) • 2. Add 5 μl compound (8 points half-log dilution, with 10 μM top dose) or vehicle (DMSO 0.1% FAC) to the appropriate wells • 3. Incubate for 3 hours at 37° C., 5% CO2 • 4. Add 5 μl nigericin (Sigma #N7143) (FAC 5 μM) to all wells • 5. Incubate for 1 hr at 37° C., 5% CO2 • 6. At the end of the incubation period, spin plates at 300×g for 3 mins and remove supernatant • 7. Then add 50 μl of resazurin (Sigma #R7017) (FAC 100 μM resazurin in RPMI medium without FBS) and incubate plates for a further 1-2 hours at 37° C. and 5% CO2 • 8. Plates were read in an Envision reader at Ex 560 nm and Em 590 nm • 9. IC50 data is fitted to a non-linear regression equation (log inhibitor vs response-variable slope 4-parameters)

NLRP3 [2] = molecular target: T1, NLRP3; assay: Human whole blood IL-1β release assay (LPS, nigericin, AlphaLisa); type: cell-based; parameters: Human whole blood in Li-heparin tubes was obtained from healthy donors; from tissue; host or cells: human whole blood from healthy donors; details: 10 μM nigericin
Method: For systemic delivery, the ability to inhibit NLRP3 when the compounds are present within the bloodstream is of great importance. For this reason, the NLRP3 inhibitory activity of a number of compounds in human whole blood was investigated in accordance with the following protocol.
Human whole blood in Li-heparin tubes was obtained from healthy donors from a volunteer donor panel. • 1. Plate out 80 μl of whole blood containing lug/ml of LPS in 96-well, clear bottom cell culture plate (Corning #3585) • 2. Add 10 μl compound (8 points half-log dilution with 10 μM top dose) or vehicle (DMSO 0.1% FAC) to the appropriate wells • 3. Incubate for 3 hours at 37° C., 5% CO2 • 4. Add 10 μl nigericin (Sigma #N7143) (10 μM FAC) to all wells • 5. Incubate for 1 hr at 37° C., 5% CO2 • 6. At the end of the incubation period, spin plates at 300×g for 5 mins to pellet cells and remove 20 μl of supernatant and add to 96-well v-bottom plates for IL-1β analysis (note: these plates containing the supernatants can be stored at −80° C. to be analysed at a later date) • 7. IL-1β was measured according to the manufacturer protocol (Perkin Elmer-AlphaLisa IL-1 Kit AL220F-5000) • 8. IC50 data is fitted to a non-linear regression equation (log inhibitor vs response-variable slope 4-parameters)

T1 sequence (Q96P20 whole entry): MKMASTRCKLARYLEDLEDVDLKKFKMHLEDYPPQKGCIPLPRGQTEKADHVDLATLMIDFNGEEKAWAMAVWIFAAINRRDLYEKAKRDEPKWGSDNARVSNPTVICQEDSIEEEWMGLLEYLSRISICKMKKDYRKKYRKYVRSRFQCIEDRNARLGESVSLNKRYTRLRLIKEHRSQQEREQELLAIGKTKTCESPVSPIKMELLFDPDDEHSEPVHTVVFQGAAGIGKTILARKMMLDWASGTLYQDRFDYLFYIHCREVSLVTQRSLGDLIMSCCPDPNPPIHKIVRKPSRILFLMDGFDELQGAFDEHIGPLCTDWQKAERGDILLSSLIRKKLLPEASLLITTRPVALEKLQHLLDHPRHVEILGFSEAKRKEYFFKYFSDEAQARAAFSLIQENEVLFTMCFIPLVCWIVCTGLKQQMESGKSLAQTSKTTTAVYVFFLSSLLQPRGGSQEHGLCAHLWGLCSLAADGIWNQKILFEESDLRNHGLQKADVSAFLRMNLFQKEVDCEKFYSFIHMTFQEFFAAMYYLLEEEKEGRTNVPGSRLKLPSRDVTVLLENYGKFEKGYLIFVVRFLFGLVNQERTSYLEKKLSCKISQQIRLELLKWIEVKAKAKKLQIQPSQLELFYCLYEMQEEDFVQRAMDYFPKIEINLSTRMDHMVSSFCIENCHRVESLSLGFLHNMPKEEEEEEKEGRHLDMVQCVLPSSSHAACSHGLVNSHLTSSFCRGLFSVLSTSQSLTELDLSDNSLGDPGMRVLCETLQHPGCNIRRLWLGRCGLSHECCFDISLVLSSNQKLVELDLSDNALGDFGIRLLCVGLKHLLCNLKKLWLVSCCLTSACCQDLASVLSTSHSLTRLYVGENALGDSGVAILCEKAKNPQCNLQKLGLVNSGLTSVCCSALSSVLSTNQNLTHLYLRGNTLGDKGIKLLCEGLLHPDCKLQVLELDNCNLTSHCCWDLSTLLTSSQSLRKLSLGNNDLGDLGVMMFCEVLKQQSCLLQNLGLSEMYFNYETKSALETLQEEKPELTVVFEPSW

SMILES	IC50 (NLRP3 [1])	IC50 (NLRP3 [2])
Cc1nc(N[C@H]2CCCN3CCC[C@H]23)nnc1-c1ccc(C(F)(F)F)cc1O (racemic) [Example 26, 2-[5-Methyl-3-[[rac-(8S,8aR)-1,2,3,5,6,7,8,8a-octahydroindolizin-8-yl]amino]-1,2,4-triazin-6-yl]-5-(trifluoromethyl) phenol]	5.1 nM	–
Cc1nc(N[C@H]2CCCN3CCC[C@@H]23)nnc1-c1ccc(C(F)(F)F)cc1O (racemic) [Example 27, 2-[5-Methyl-3-[[rac-(8S,8aS)-1,2,3,5,6,7,8,8a-octahydroindolizin-8-yl]amino]-1,2,4-triazin-6-yl]-5-(trifluoromethyl) phenol]	20.9 nM	–
Cc1nc(N[C@@H]2CCCN(C(C)(C)C)C2)nnc1-c1ccc(C(F)(F)F)cc1O (single isomer, unassigned) [Example 10, 2-[3-[[(3R or 3S)-1-tert-Butyl-3-piperidyl]amino]-5-methyl-1,2,4-triazin-6-yl]-5-(trifluoromethyl) phenol]	434 nM	–
Cc1nc(NC2CCCN(C(C)(C)C)C2)nnc1-c1ccc(C(F)(F)F)cc1O (single isomer, unassigned) [Example 11, 2-[3-[[(3S or 3R)-1-tert-Butyl-3-piperidyl]amino]-5-methyl-1,2,4-triazin-6-yl]-5-(trifluoromethyl) phenol]	2.2 nM	15.6 nM
Cc1nc(NC2CCCN3CCCC23)nnc1-c1ccc(C(F)(F)F)cc1O (single isomer, unassigned) [Example 28]	2.4 nM	18.8 nM
Cc1nc(NC2CCCN3CCCC23)nnc1-c1ccc(C(F)(F)F)cc1O (single isomer, unassigned) [Example 29]	163 nM	–
Cc1nc(NC2CCC3CCCN3C2)nnc1-c1ccc(C(F)(F)F)cc1O (single isomer, unassigned) [Example 31, 2-[3-[[(6S or 6R,8aS or 8aR)-1,2,3,5,6,7,8,8a-octahydroindolizin-6-yl]amino]-5-methyl-1,2,4-triazin-6-yl]-5-(trifluoromethyl) phenol]	> 1000 nM	–
Cc1nc(NC2CCC3CCCN3C2)nnc1-c1ccc(C(F)(F)F)cc1O (single isomer, unassigned) [Example 32, 2-[3-[[(6R or 6S,8aS or 8aR)-1,2,3,5,6,7,8,8a-octahydroindolizin-6-yl]amino]-5-methyl-1,2,4-triazin-6-yl]-5-(trifluoromethyl) phenol]	16.1 nM	36.5 nM
Cc1nc(NC2CCC3CCCN3C2)nnc1-c1ccc(C(F)(F)F)cc1O (single isomer, unassigned) [Example 33, 2-[3-[[(6S or 6R,8aR or 8aS)-1,2,3,5,6,7,8,8a-octahydroindolizin-6-yl]amino]-5-methyl-1,2,4-triazin-6-yl]-5-(trifluoromethyl) phenol]	46.1 nM	300 nM
Cc1nc(NC2CCC3CCCN3C2)nnc1-c1ccc(C(F)(F)F)cc1O (single isomer, unassigned) [Example 34, 2-[3-[[(6R or 6S, 8aR or 8aS)-1,2,3,5,6,7,8,8a-octahydroindolizin-6-yl]amino]-5-methyl-1,2,4-triazin-6-yl]-5-(trifluoromethyl) phenol]	209 nM	–
CCN1CCC[C@@H](Nc2ncc(-c3c(C)cc(C(F)(F)F)cc3O)nn2)C1 [Example 1, 2-[3-[[(3R)-1-Ethyl-3-piperidyl]amino]-1,2,4-triazin-6-yl]-3-methyl-5-(trifluoromethyl) phenol; 2,2,2-trifluoroacetic acid]	9 nM	39 nM
Cc1nc(N[C@H]2C[C@@](C)(O)C2)nnc1-c1ccc(C(F)(F)F)cc1O [Example 3, 2-[3-[(3-Hydroxy-3-methyl-cyclobutyl)amino]-5-methyl-1,2,4-triazin-6-yl]-5-(trifluoromethyl) phenol]	107 nM	191 nM
CCN1CCC[C@@H](Nc2nnc(-c3ccc(Cl)cc3O)c(C)n2)C1 [Example 5, 5-Chloro-2-[3-[[(3R)-1-ethyl-3-piperidyl]amino]-5-methyl-1,2,4-triazin-6-yl]phenol]	1.3 nM	3.8 nM
CCN1CCC[C@@H](Nc2nnc(-c3ccc(F)cc3O)c(C)n2)C1 [Example 6, 2-[3-[[(3R)-1-Ethyl-3-piperidyl]amino]-5-methyl-1,2,4-triazin-6-yl]-5-fluoro-phenol]	15.5 nM	14.6 nM
CCN1CCC[C@@H](Nc2nnc(-c3ccc4c(c3O)CC4)c(C)n2)C1 [Example 8, 3-[3-[[(3R)-1-Ethyl-3-piperidyl]amino]-5-methyl-1,2,4-triazin-6-yl]bicyclo[4.2.0]octa-1(6),2,4-trien-2-ol]	0.4 nM	4.3 nM
CCN1CCC[C@@H](Nc2nnc(-c3c(O)cc(C(F)(F)F)cc3F)c(C)n2)C1 [Example 9, 2-[3-[[(3R)-1-Ethyl-3-piperidyl]amino]-5-methyl-1,2,4-triazin-6-yl]-3-fluoro-5-(trifluoromethyl) phenol]	3.5 nM	27.4 nM
CCN1CCC[C@@H](Nc2nnc(-c3ccc(C#N)cc3O)c(C)n2)C1 [Example 12, 4-[3-[[(3R)-1-Ethyl-3-piperidyl]amino]-5-methyl-1,2,4-triazin-6-yl]-3-hydroxy-benzonitrile]	20.5 nM	23.9 nM
Cc1nc(N[C@@H]2C[C@H](F)CN(C)C2)nnc1-c1ccc(C(F)(F)F)cc1O [Example 13, 2-[3-[[(3R,5S)-5-Fluoro-1-methyl-3-piperidyl]amino]-5-methyl-1,2,4-triazin-6-yl]-5-(trifluoromethyl) phenol]	77 nM	–
Cc1nc(NC2CCCn3ccnc32)nnc1-c1ccc(C(F)(F)F)cc1O (stereo not drawn) [Example 14, 2-[5-Methyl-3-(5,6,7,8-tetrahydroimidazo[1,2-a]pyridin-8-ylamino)-1,2,4-triazin-6-yl]-5-(trifluoromethyl) phenol]	350 nM	–
Cc1nc(N[C@@H]2CCCN(C)C2)nnc1-c1ccc(F)cc1O [Example 15, 5-Fluoro-2-[5-methyl-3-[[(3R)-1-methyl-3-piperidyl]amino]-1,2,4-triazin-6-yl]phenol]	18.3 nM	15.1 nM
Cc1nc(N[C@@H]2CCCN(C)C2)nnc1-c1ccc(Cl)cc1O [Example 16, 5-Chloro-2-[5-methyl-3-[[(3R)-1-methyl-3-piperidyl]amino]-1,2,4-triazin-6-yl]phenol]	1.5 nM	13.2 nM
Cc1nc(N[C@@H]2CCCNC2)nnc1-c1ccc(C(F)(F)F)cc1O [Example 17, 2-[5-Methyl-3-[[(3R)-3-piperidyl]amino]-1,2,4-triazin-6-yl]-5-(trifluoromethyl) phenol]	13.4 nM	46.5 nM
Cc1nc(N[C@@H]2CCCN(C)C2)nnc1-c1ccc(C(F)(F)F)cc1O [Example 18, 2-[5-Methyl-3-[[(3R)-1-methyl-3-piperidyl]amino]-1,2,4-triazin-6-yl]-5-(trifluoromethyl) phenol]	1 nM	20.2 nM
CCN1CCC[C@@H](Nc2nnc(-c3ccc(C(F)(F)F)cc3O)c(C(F)(F)F)n2)C1 [Example 30, 2-[3-[[(3R)-1-Ethyl-3-piperidyl]amino]-5-(trifluoromethyl)-1,2,4-triazin-6-yl]-5-(trifluoromethyl) phenol; 2,2,2-trifluoroacetic acid]	111 nM	–
